The values below come from US20110142802A1, “FUNGICIDAL COMPOSITIONS” (SYNGENTA CROP PROTECTION, INC., priority 2008, published 2011).

Series [1] has as its system Pyrenophora teres (PYRNTE). Nature of the series: Growth inhibition of Pyrenophora teres in nutrient broth, 96-well microtiter plate, photometric. Format: cell-based. The note with it: 3 days. From the text:
A synergistic effect exists whenever the action of an active ingredient combination is greater than the sum of the actions of the individual components. The action to be expected E for a given active ingredient combination obeys the so-called COLBY formula and can be calculated as follows (COLBY, S. R. “Calculating synergistic and antagonistic responses of herbicide combination”. Weeds, Vol. 15, pages 20-22; 1967): ppm=milligrams of active ingredient (=a.i.) per liter of spray mixture X=% action by active ingredient A) using p ppm of active ingredient Y=% action by active ingredient B) using q ppm of active ingredient. According to COLBY, the expected (additive) action of active ingredients A)+B) using p+q ppm of active ingredient is If the action actually observed (O) is greater than the expected action (E), then the action of the combination is super-additive, i.e. there is a synergistic effect. In mathematical terms, synergism corresponds to a positive value for the difference of (O-E). In the case of purely complementary addition of activities (expected activity), said difference (O-E) is zero. A negative value of said difference (O-E) signals a loss of activity compared to the expected activity. Pyrenophora teres ([…]): Conidia of the fungus from cryogenic storage are directly mixed into nutrient broth (PDB potato dextrose broth). After placing a (DMSO) solution of the test compounds into a microtiter plate (96-well format) the nutrient broth containing the fungal spores is added.

Series [2] concerns Mycosphaerella graminicola (Septoria tritici; SEPTTR). Nature of the series: Growth inhibition of Mycosphaerella graminicola in nutrient broth, 96-well microtiter plate, photometric. Format: cell-based. To be noted: 4 days. The text has this:
A synergistic effect exists whenever the action of an active ingredient combination is greater than the sum of the actions of the individual components. The action to be expected E for a given active ingredient combination obeys the so-called COLBY formula and can be calculated as follows (COLBY, S. R. “Calculating synergistic and antagonistic responses of herbicide combination”. Weeds, Vol. 15, pages 20-22; 1967): ppm=milligrams of active ingredient (=a.i.) per liter of spray mixture X=% action by active ingredient A) using p ppm of active ingredient Y=% action by active ingredient B) using q ppm of active ingredient. According to COLBY, the expected (additive) action of active ingredients A)+B) using p+q ppm of active ingredient is If the action actually observed (O) is greater than the expected action (E), then the action of the combination is super-additive, i.e. there is a synergistic effect. In mathematical terms, synergism corresponds to a positive value for the difference of (O-E). In the case of purely complementary addition of activities (expected activity), said difference (O-E) is zero. A negative value of said difference (O-E) signals a loss of activity compared to the expected activity. Mycosphaerella graminicola (Septoria tritici; […]): Conidia of the fungus from cryogenic storage are directly mixed into nutrient broth (PDB potato dextrose broth). After placing a (DMSO) solution of the test compounds into a microtiter plate (96-well format) the nutrient broth containing the fungal spores is added.

The test system of series [3] is Alternaria solani (ALTESO). Nature of the series: Growth inhibition of Alternaria solani in nutrient broth, 96-well microtiter plate, photometric. Format: cell-based. To be noted: 3 days. From the text: A synergistic effect exists whenever the action of an active ingredient combination is greater than the sum of the actions of the individual components. The action to be expected E for a given active ingredient combination obeys the so-called COLBY formula and can be calculated as follows (COLBY, S. R. “Calculating synergistic and antagonistic responses of herbicide combination”. Weeds, Vol. 15, pages 20-22; 1967): ppm=milligrams of active ingredient (=a.i.) per liter of spray mixture X=% action by active ingredient A) using p ppm of active ingredient Y=% action by active ingredient B) using q ppm of active ingredient. According to COLBY, the expected (additive) action of active ingredients A)+B) using p+q ppm of active ingredient is If the action actually observed (O) is greater than the expected action (E), then the action of the combination is super-additive, i.e. there is a synergistic effect. In mathematical terms, synergism corresponds to a positive value for the difference of (O-E). In the case of purely complementary addition of activities (expected activity), said difference (O-E) is zero. A negative value of said difference (O-E) signals a loss of activity compared to the expected activity. Alternaria solani ([…]): Conidia harvested from a freshly grown colony of the fungus are directly mixed into nutrient broth (PDB potato dextrose broth). After placing a (DMSO) solution of the test compounds into a microtiter plate (96-well format) the nutrient broth containing the fungal spores is added.

The test system of series [4] is Mycosphaerella arachidis (Cercospora arachidicola; MYCOAR). Nature of the series: Growth inhibition of Mycosphaerella arachidis in nutrient broth, 96-well microtiter plate, photometric at 620 nm. The class given is cell-based. To be noted: 8 days. From the text: A synergistic effect exists whenever the action of an active ingredient combination is greater than the sum of the actions of the individual components. The action to be expected E for a given active ingredient combination obeys the so-called COLBY formula and can be calculated as follows (COLBY, S. R. “Calculating synergistic and antagonistic responses of herbicide combination”. Weeds, Vol. 15, pages 20-22; 1967): ppm=milligrams of active ingredient (=a.i.) per liter of spray mixture X=% action by active ingredient A) using p ppm of active ingredient Y=% action by active ingredient B) using q ppm of active ingredient. According to COLBY, the expected (additive) action of active ingredients A)+B) using p+q ppm of active ingredient is If the action actually observed (O) is greater than the expected action (E), then the action of the combination is super-additive, i.e. there is a synergistic effect. In mathematical terms, synergism corresponds to a positive value for the difference of (O-E). In the case of purely complementary addition of activities (expected activity), said difference (O-E) is zero. A negative value of said difference (O-E) signals a loss of activity compared to the expected activity. Mycosphaerella arachidis (Cercospora arachidicola; MYCOAR): Conidia of the fungus from cryogenic storage are directly mixed into nutrient broth (PDB potato dextrose broth). After placing a (DMSO) solution of the test compounds into a microtiter plate (96-well format) the nutrient broth containing the fungal spores is added.

Setting [5] is: single active ingredient 0.0625 mg/L (ppm ai).
Setting [6] is: single active ingredient 0.125 mg/L (ppm ai).
Setting [7] is: single active ingredient 0.25 mg/L (ppm ai).
The mark [8] stands for this setting: single active ingredient 0.0039 mg/L (ppm ai).
Where [9] appears, read: single active ingredient 0.0078 mg/L (ppm ai).
The mark [10] stands for this setting: single active ingredient 0.0156 mg/L (ppm ai).
Setting [11] is: single active ingredient 0.0313 mg/L (ppm ai).
The mark [12] stands for this setting: single active ingredient 0.5 mg/L (ppm ai).

Values joined by “and” are separate entries in the source; they are usually repeats but may differ in a detail not shown here. Equal entries are not always repeated.

One may read the melting point as the temperature of the solid-liquid transition. `COc1nnc(C)c(-c2ccc(Cl)nc2)c1-c1c(F)cc(F)cc1F` [Compound A-1.3, 4-(6-chloro-pyridin-3-yl)-6-methoxy-3-methyl-5-(2,4,6-trifluoro-phenyl)-pyridazine] came in with a melting point of 123 to 124 °C.

As for `Cc1cc(C2CC2)nc(Nc2ccccc2)n1` [Cyprodinil, cyprodinil], the “Observed control in % (% Cobs)” value in series [1] (setting [5]) worked out at 23.8%; in series [1] (setting [6]), 45.1%.

With `CC(C1CC1)C(O)(Cn1cncn1)c1ccc(Cl)cc1` (centres unmarked) [Cyproconazole, cyproconazole], the “Observed control in % (% Cobs)” value amounted to 0.0% in series [1] (setting [5]); 0.0% in series [1] (setting [6]); 15.1% in series [1] (setting [7]); 2.3% in series [2] (setting [8]); 2.8% in series [2] (setting [9]); 4.7% in series [2] (setting [10]). Also, the “Observed control in % (% Cobs)” value is 1.9% in series [2] (setting [11]) and 0.6% in series [2] (setting [5]).

As to `Fc1ccc([C@]2(Cn3cncn3)O[C@H]2c2ccccc2Cl)cc1` (racemic) [Epoxiconazole, epoxiconazole], the “Observed control in % (% Cobs)” value amounted to 0.0% in series [3] (setting [5]); 24.3% in series [3] (setting [6]); 28.9% in series [3] (setting [7]); 6.8% in series [2] (setting [5]); 18.0% in series [2] (setting [6]); 36.8% in series [2] (setting [7]). Besides, in series [2] (setting [12]), the “Observed control in % (% Cobs)” value came to 51.8%.

For the molecule `CC1COC(Cn2cncn2)(c2ccc(Oc3ccc(Cl)cc3)cc2Cl)O1` (centres unmarked) [Difenoconazole, difenoconazole], the “Observed control in % (% Cobs)” value in series [3] (setting [5]) was determined as 37.6%; in series [3] (setting [6]) it was 36.9%; in series [4] (setting [10]) it was 66.5%.

For mancozeb, in series [3] (setting [7]), the “Observed control in % (% Cobs)” value stood at 0.7%.

As to `N#Cc1c(Cl)c(Cl)c(Cl)c(C#N)c1Cl` [Chlorothalonil, chlorothalonil], the “Observed control in % (% Cobs)” value in series [4] (setting [11]) is 7.6%; in series [4] (setting [5]), 8.2%; in series [4] (setting [6]) it was 9.9%; in series [2] (setting [8]), 3.0%; in series [2] (setting [9]), 0.0%; in series [2] (setting [10]), 0.7%. Besides, in series [2] (setting [11]), the “Observed control in % (% Cobs)” value amounted to 0.0%.

Consider `CO/C=C(/C(=O)OC)c1ccccc1Oc1cc(Oc2ccccc2C#N)ncn1` [Azoxystrobin, azoxystrobin], for which the figures for the “Observed control in % (% Cobs)” value in series [4] (setting [11]) and in series [4] (setting [5]) were 44.8% and 76.4%, respectively.

Regarding `CN1COCN(Cc2cnc(Cl)s2)/C1=N\[N+](=O)[O-]` [Thiomethoxam, thiamethoxam], the “Observed control in % (% Cobs)” value in series [1] (setting [5]) was found to be 0.0%; in series [1] (setting [6]) it was 0.0%; in series [1] (setting [7]), 0.0%; in series [2] (setting [8]), 1.8%; in series [2] (setting [9]), 1.6%; in series [2] (setting [10]), 0.0%. For the same molecule, the “Observed control in % (% Cobs)” value in series [2] (setting [11]) came to 2.9%; in series [2] (setting [5]), 0.0%.

Turning to `OC(Cc1ccccc1Cl)(Cn1nc[nH]c1=S)C1(Cl)CC1` (centres unmarked) [Prothioconazole, prothioconazole], the “Observed control in % (% Cobs)” value in series [1] (setting [5]) is given as 28.9%; in series [1] (setting [6]), 50.1%; in series [1] (setting [7]) it was 66.6%; in series [4] (setting [10]), 22.0%; in series [4] (setting [11]), 59.1%.

In turn, `Cc1nnc(Cl)c(-c2c(F)cc(F)cc2F)c1-c1ccc(Cl)nc1` [Compound A-1.1, 3-chloro-5-(6-chloro-pyridin-3yl)-6-methyl-4-(2,4,6-trifluoro-phenyl)-pyridazine] registered a melting point of 182 to 183 °C. For the same molecule, the “Observed control in % (% Cobs)” value in series [3] (setting [7]) is 13.3% and 7.0%. Moreover, the “Observed control in % (% Cobs)” value in series [3] (setting [12]) is 28.4% and 39.9%. Besides, the “Observed control in % (% Cobs)” value in series [3] (single active ingredient 1.0 mg/L (ppm ai)) is recorded as 38.8%. In addition, the “Observed control in % (% Cobs)” value in series [4] (setting [11]) worked out at 6.7%. Besides, in series [4] (setting [5]), the “Observed control in % (% Cobs)” value was 3.5% and 5.1%. Besides, the “Observed control in % (% Cobs)” value in series [4] (setting [7]) was 51.3% and 56.5%. The “Observed control in % (% Cobs)” value in series [2] (setting [10]) was 1.4% and 0.3% and 1.6% and 3.4%. Further, the “Observed control in % (% Cobs)” value in series [2] (setting [11]) was 3.7% and 5.3% and 6.3%. The “Observed control in % (% Cobs)” value in series [2] (setting [5]) is 14.9% and 13.0% and 15.1% and 13.7%. Also, in series [2] (setting [6]), the “Observed control in % (% Cobs)” value is 59.1% and 67.2% and 58.5% and 80.1%.

On to `Cc1nnc(Cl)c(-c2c(F)cccc2Cl)c1-c1ccc(Cl)nc1` [Compound A-1.2, 3-chloro-5-(6-chloro-pyridin-3-yl)-6-methyl-4-(2-chloro-6-fluoro-phenyl)-pyridazine], for which the melting point lay in the range of 166 to 167 °C.
